Measurements from patent publication US10829798B2, “DNA-linked enzyme-coupled assays” (THE REGENTS OF THE UNIVERSITY OF CALIFORNIA, priority 2014, dated 2020).

Molecular target: T1, OleD (Streptomyces antibioticus, UniProt Q53685, P55A/R82V/R83E/T84P)
T1 construct: made in house; host or cells: PURExpress In Vitro Protein Synthesis Kit (NEB E6800L), cell-free transcription/translation, linear DNA with T7 promoter
Assay: FRET DLEnCA, cell-free transcription/translation-derived OleD, fluorescence readout
Assay type: biochemical
Settings: all components present; chemical 1 mM, UDP-Glc 5 μM, FRET probe 250 nM
Protocol: FIG. 3A-FIG. 3D. DNA-Linked Enzyme-Coupled Assay using cell-free transcription/translation system. A. UDP-Glc was titrated into reactions containing 250 nM FRET probe, TbGT, and a cell-free transcription/translation system. After 3 hours incubation at 37° C., probe was digested with MfeI and resulting digests were analyzed using fluorescent spectrometry (n=6, error bars=standard error). B. DNA encoding OleD (5 nM) was incubated in a cell-free transcription/translation system for 3 hours at 37° C., followed by the addition of UDP-Glucose (5 μM) and kaempferol (1 mM). After a subsequent incubation of 3 hours, TbGT and FRET probe (250 nM) were added. Following MfeI addition, fluorescence formation was monitored using fluorometry. […] Digests were analyzed using qPCR. […]
Assays were performed using 250 nM fluorescent probe (Sequence provided in FIG. 21) in place of the linear probe. Fluorescence was detected using a Tecan Safire^2 using the following settings: excitation wavelength 550 nm, emission wavelength 564 nm, excitation bandwidth 5 nm, emission bandwidth 5 nm, Gain (manual) 120, Number of reads 10, FlashMode High Sensitivity, Integration time 100 μs, lag time 0 μs, Z-position 12000 μm, Temperature 37° C. Development of fluorescence after MfeI addition was monitored over an 8 hour period. […]

T1 sequence (Q53685 other isoform, or with tags, fused parts or gaps P55A/R82V/R83E/T84P): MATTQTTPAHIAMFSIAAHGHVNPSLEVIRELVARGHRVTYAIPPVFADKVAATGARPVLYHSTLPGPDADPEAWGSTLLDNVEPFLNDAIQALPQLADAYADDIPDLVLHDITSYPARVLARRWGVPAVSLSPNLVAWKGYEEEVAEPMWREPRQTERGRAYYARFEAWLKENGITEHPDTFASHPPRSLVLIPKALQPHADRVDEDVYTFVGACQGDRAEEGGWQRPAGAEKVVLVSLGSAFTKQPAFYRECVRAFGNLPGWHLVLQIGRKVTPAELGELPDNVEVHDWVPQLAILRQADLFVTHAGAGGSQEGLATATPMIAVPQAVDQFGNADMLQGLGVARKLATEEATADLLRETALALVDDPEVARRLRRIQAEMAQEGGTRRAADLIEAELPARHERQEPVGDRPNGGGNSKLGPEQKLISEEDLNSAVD

O=c1c(O)c(-c2ccc(O)cc2)oc2cc(O)cc(O)c12 [I, kaempferol]
fluorescent reading after MfeI digestion of FRET probe: 50 RFU
